Assay results as given in patent US20240408222A1, “COMPOUNDS, PHARMACEUTICAL COMPOSITIONS, AND METHODS FOR THE TREATMENT, PREVENTION, OR MANAGEMENT OF HYPERPRO[…]” (VINCERX PHARMA GMBH, priority 2021, published 2024).

Experiments:
NCI H292 [1] = experiment: Cytotoxicity in vitro (MTT) in presence/absence of elastase; type: cell-based, human; conditions: 72 h
Procedure: (§1) Cultivation of cells was performed according to standard procedures with the media recommended by the provider. The cells, in a total volume of 100 μL, were seeded in a 96-well plate with a white bottom (#3610). After a 24 h incubation period at 37° C. and […], the medium was exchanged by adding 90 μL fresh medium. The treatment started by adding the test compound in 10 μL of culture medium to the cells in triplicates. Concentrations ranging from 10^−5 M to 10^−13 M were chosen. Two identically treated sets of samples were prepared. One set was treated with the test compound alone, whereas to the second set the compound and 10 nM elastase was added followed by a 72 h incubation period at 37° C. and […]. The proliferation was detected using the MTT assay (ATCC). At the end of the incubation period the MTT reagent was added to all samples for 4 h. Lysis of the cells followed by addition of the detergent was done overnight. The formed dye was detected at 570 nm. The proliferation of untreated but otherwise identically handled cells was define as the 100% value.

786-O [2] = experiment: as above; type: cell-based, human; conditions: 72 h
Procedure: as §1

HT29 [3] = experiment: as above; type: cell-based, human; conditions: 72 h
Procedure: as §1

SUM149 [4] = experiment: Cytotoxicity assay (Version 2, automated, AC50) with/without neutrophil elastase; type: cell-based; conditions: Version 2, activity concentration at −50%
Procedure: as §1
(§2) The cytotoxicity assay (Version 2) was performed as described above. Some changes were applied as the assays were performed in an automated fashion and the IC50 values determination was changed. Here the change in metabolic activity of the cells, in percent, was calculated by normalization of the measured values to the absorbance values of medium containing wells without cells (═−100%) and the absorbance of the DMSO-treated cells (═0%). AC50 values (activity concentration at −50%) were determined by means of a 4 parameter Hill-fit using GeneData Screener software.

SUM149 [5] = experiment: Cytotoxicity in vitro (MTT) in presence/absence of elastase; type: cell-based; conditions: 72 h
Procedure: as §1

NCI H292 [6] = experiment: Cytotoxicity assay (Version 2, automated, AC50) with/without neutrophil elastase; type: cell-based, human; conditions: Version 2, activity concentration at −50%
Procedure: as §1, §2

786-O [7] = experiment: as above; type: cell-based, human; conditions: Version 2, activity concentration at −50%
Procedure: as §1, §2

HT29 [8] = experiment: as above; type: cell-based, human; conditions: Version 2, activity concentration at −50%
Procedure: as §1, §2

[9] = NCI H292, with (+) 10 nM neutrophil elastase
[10] = NCI H292, without (−) neutrophil elastase
[11] = with (+) 10 nM neutrophil elastase
[12] = without (−) neutrophil elastase
[13] = HT29, with (+) 10 nM neutrophil elastase
[14] = HT29, without (−) neutrophil elastase
[15] = SUM149, with (+) neutrophil elastase
[16] = SUM149, without (−) neutrophil elastase
[17] = SUM149, with (+) 10 nM neutrophil elastase
[18] = NCI H292, with (+) neutrophil elastase
[19] = HT29, with (+) neutrophil elastase

Structure (SMILES) | IC50 (NCI H292 [1]; [9]) [nM] | IC50 (NCI H292 [1]; [10]) [nM] | IC50 (786-O [2]; [11]) [nM] | IC50 (786-O [2]; [12]) [nM] | IC50 (HT29 [3]; [13]) [nM] | IC50 (HT29 [3]; [14]) [nM] | AC50 (SUM149 [4]; [15]) [nM] | AC50 (SUM149 [4]; [16]) [nM] | IC50 (SUM149 [5]; [17]) [nM] | IC50 (SUM149 [5]; [16]) [nM] | AC50 (NCI H292 [6]; [18]) [nM] | AC50 (NCI H292 [6]; [10]) [nM] | AC50 (786-O [7]; with (+) neutrophil elastase) [nM] | AC50 (786-O [7]; [12]) [nM] | AC50 (HT29 [8]; [19]) [nM] | AC50 (HT29 [8]; [14]) [nM]
CCCNC(=O)Nc1cccc(S(=O)(=O)Nc2cccc([C@@H](CC(=O)O)NC(=O)Nc3ccc(NC(=O)NCCOCCOCCOCCC(=O)NCCCC[C@H](NC(=O)CCOCCOCCOCCNC(=O)Nc4ccc(NC(=O)N[C@H](CC(=O)O)c5cccc(NS(=O)(=O)c6cccc(NC(=O)NCCC)c6)c5)cc4)C(=O)NCCOCCOCCOCCC(=O)N[C@@H](CC(=O)O)C(=O)N4CCC[C@H]4C(=O)N[C@H](C(=O)N=[S@@](C)(=O)Cc4cc5cc(c4)OCCCCOc4cc(F)ccc4-c4nc(ncc4F)N5)C(C)C)cc3)c2)c1 [Compound 18] | 1.1 to 10 | > 100 | 1.1 to 10 | > 100 | ≤ 1 | 11 to 100 | ≤ 10 | 100 to 1000 | ≤ 1 | 11 to 100 | 11 to 100 | 100 to 1000 | 11 to 100 | > 1000 | 11 to 100 | > 1000
CCCNC(=O)Nc1cccc(S(=O)(=O)Nc2cccc([C@@H](CC(=O)O)NC(=O)Nc3ccc(NC(=O)N(C)CCN(C)CCN(C)CC(=O)N[C@@H](CC(N)=O)C(=O)N4CCC[C@H]4C(=O)N[C@H](C(=O)N=[S@@](C)(=O)Cc4ccnc(Nc5cc(-c6ccc(F)cc6OC)c(F)cn5)c4)C(C)C)cc3)c2)c1 [Compound 4, N-{2-[{2-[({4-[({(1R)-2-Carboxy-1-[3-({3-[(propylcarbamoyl)amino]benzene-1-sulfonyl}amino)phenyl]ethyl}carbamoyl)amino]phenyl}carbamoyl)(methyl)amino]ethyl} (methyl)amino]ethyl}-N-methylglycyl-L-asparaginyl-L-prolyl-N—[(S)-[(2-{[5-fluoro-4-(4-fluoro-2-methoxyphenyl)pyridine-2-yl]amino}pyridin-4-yl)methyl](methyl)oxo-lambda^6-sulfanylidene]-L-valinamide] | 11 to 100 | > 100 | 11 to 100 | > 100 | 11 to 100 | > 100 | 100 to 1000 | > 1000 | 11 to 100 | > 100 | > 1000 | > 1000 | 11 to 100 | > 1000 | 100 to 1000 | > 1000
CCCNC(=O)Nc1cccc(S(=O)(=O)Nc2cccc([C@@H](CC(=O)O)NC(=O)Nc3ccc(NC(=O)NCCOCCOCCOCCC(=O)N[C@@H](CC(=O)O)C(=O)N4CCC[C@H]4C(=O)N[C@H](C(=O)N=S(C)(=O)Cc4ccnc(Nc5cc(-c6ccc(F)cc6OC)c(F)cn5)c4)C(C)C)cc3)c2)c1 (relative stereo) [Compound 2, disodium 1-[(2S)-2-(carboxylatomethyl)-17-{4-[({(1R)-2-carboxylato-1-[3-({3-[(propylcarbamoyl)amino]benzene-1-sulfonyl}amino)phenyl]ethyl}carbamoyl)amino]anilino}-4,17-dioxo-7,10,13-trioxa-3,16-diazaheptadecanan-1-oyl]-L-prolyl-N—[(S*)-[(2-{[5-fluoro-4-(4-fluoro-2-methoxyphenyl)pyridin-2-yl]amino}pyridin-4-yl)methyl](methyl)oxo-lambda^6-sulfanylidene]-L-valinamide] | 11 to 100 | > 100 | 11 to 100 | > 100 | 1.1 to 10 | > 100 | 100 to 1000 | 100 to 1000 | 11 to 100 | > 100 | 100 to 1000 | > 1000 | 100 to 1000 | 100 to 1000 | 100 to 1000 | 100 to 1000
CCCNC(=O)Nc1cccc(S(=O)(=O)Nc2cccc([C@H](CC(=O)O)NC(=O)Nc3ccc(NC(=O)NCCOCCOCCOCCC(=O)N[C@@H](CC(=O)O)C(=O)N4CCC[C@H]4C(=O)N[C@H](C(=O)N=[S@@](C)(=O)Cc4cc5cc(c4)OCCCCOc4cc(F)ccc4-c4nc(ncc4F)N5)C(C)C)cc3)c2)c1 [Compound 14] | 1.1 to 10 | > 100 | ≤ 1 | > 100 | ≤ 1 | > 100 | 11 to 100 | 100 to 1000 | ≤ 1 | > 100 | 11 to 100 | 100 to 1000 | 11 to 100 | > 1000 | 11 to 100 | > 1000
CCCNC(=O)Nc1cccc(S(=O)(=O)Nc2cccc([C@@H](CC(=O)O)NC(=O)Nc3ccc(NC(=O)N(C)CCN(C)CCN(C)CC(=O)N[C@@H](CC(N)=O)C(=O)N4CCC[C@H]4C(=O)N[C@H](C(=O)N=[S@@](C)(=O)Cc4cc5cc(c4)OCCCCOc4cc(F)ccc4-c4nc(ncc4F)N5)C(C)C)cc3)c2)c1 [Compound 5, N-{2-[{2-[({4-[({(1R)-2-Carboxy-1-[3-({3-[(propylcarbamoyl)amino]benzene-1-sulfonyl}amino)phenyl]ethyl}carbamoyl)amino]phenyl}carbamoyl)(methyl)amino]ethyl} (methyl)amino]ethyl}-N-methylglycyl-L-asparaginyl-L-prolyl-N—[(S)-{[16,20-difluoro-2,3,4,5-tetrahydro-12H-13,17-(azeno)-11,7-(metheno)-1,6,12,14-benzodioxadiazacyclononadecin-9-yl]methyl}(methyl)oxo-lambda^6-sulfanylidene]-L-valinamide] | 1.1 to 10 | > 100 | ≤ 1 | > 100 | ≤ 1 | > 100 | 11 to 100 | > 1000 | 1.1 to 10 | > 100 | 11 to 100 | 100 to 1000 | 11 to 100 | > 1000 | 11 to 100 | > 1000
CCCNC(=O)Nc1cccc(S(=O)(=O)Nc2cccc([C@@H](CC(=O)O)NC(=O)Nc3ccc(NC(=O)NCCOCCOCCOCCC(=O)N[C@@H](CC(=O)O)C(=O)N4CCC[C@H]4C(=O)N[C@H](C(=O)N=S(C)(=O)Cc4cccc(Nc5ncnc(-c6ccc(F)cc6OC)n5)c4)C(C)C)cc3)c2)c1 (relative stereo) [Compound 1, disodium 1-[(2S)-2-(carboxylatomethyl)-17-{4-[({(1R)-2-carboxylato-1-[3-({3-[(propylcarbamoyl)amino]benzene-1-sulfonyl}amino)phenyl]ethyl}carbamoyl)amino]anilino}-4,17-dioxo-7,10,13-trioxa-3,16-diazaheptadecanan-1-oyl]-L-prolyl-N—[(R*)-[(3-{[4-(4-fluoro-2-methoxyphenyl)-1,3,5-triazin-2-yl]amino}phenyl)methyl](methyl)oxo-lambda^6-sulfanylidene]-L-valinamide] | 11 to 100 | > 100 | 11 to 100 | 11 to 100 | 11 to 100 | > 100 | 100 to 1000 | > 1000 | 11 to 100 | > 100 | 11 to 100 | > 1000 | > 1000 | > 1000 | > 1000 | > 1000
